This note sets out measurements from the METLIN SMRT retention time set (Domingo-Almenara et al. 2019).

The nature of this data set: gradient 5% acetonitrile 3 min, to 50% in 2 min, to 85% in 15 min, held 3 min, 100 µL/min. To be noted: column: Zorbax Extend-C18 2.1 x 50 mm; eluents: water / acetonitrile, 0.1% formic acid. An outline of the steps: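 Each retention time is based on an adduct peak selected computationally and verified by manual inspection. Measurements used HPLC–quadrupole time-of-flight mass spectrometry in positive and negative ionization mode on mixtures of ~100 pure standards. Chromatography ran on a Zorbax Extend-C18 column (2.1 × 50 mm, 1.8 μm) at 100 μL/min with water and acetonitrile, each containing 0.1% formic acid, and dead and dwell volumes of 40 μL and 900 μL.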
`CCc1noc(C2(NC(=O)c3nccc4ccccc34)CCCCC2)n1` showed an RP-LC retention time of 1060 s.

`COc1ccccc1NC(=O)N1CCC2(C1)C(=O)N(C)c1ccccc12` (stereo not drawn) had an RP-LC retention time of 818 s.

The compound `Cc1ccc(-c2cc(C(=O)NCCCN3CCC(C)CC3)c(C)[nH]2)cc1C` came in with an RP-LC retention time of 725 s.

The compound `O=C(CC1CCN(C(=O)C2(c3ccccc3)CC2)C1)NC1CC1` (stereo not drawn) came in with an RP-LC retention time of 666 s.

`COc1ccc(-c2c(C)noc2NC(C)=O)cc1S(=O)(=O)Nc1ccc(Cl)cc1F`: the RP-LC retention time turned out to be 807 s.

In turn, `Cc1ccn2cc(C(=O)NCC3CCCCC3)nc2c1` returned an RP-LC retention time of 714 s.

In turn, `COc1ccccc1C(=O)N1CCC(COc2ccc(C(=O)NC(C)C)cc2)CC1` gave an RP-LC retention time of 817 s.

`CC(C)CCN1CCC(N2CCN(S(=O)(=O)Cc3ccccc3)CC2)C1=O` (stereo not drawn) showed an RP-LC retention time of 646 s.

Take `CCc1ccccc1NC(=O)c1sc(-c2cn(C)c3ncccc23)nc1C`: the RP-LC retention time is 971 s.

On to `O=C(COc1ccc(-c2nnc3n2CCCC3)cc1)Nc1ccc(Br)cc1`, for which the RP-LC retention time came to 734 s.

Turning to `c1nc(N2CCOCC2)c2cn[nH]c2n1`, the RP-LC retention time amounted to 340 s.

The compound `Cc1ccc(NC(=O)C2CCN(S(=O)(=O)c3cc(C(=O)N4CCCC4)cs3)CC2)c(C)c1` showed an RP-LC retention time of 831 s.

With `Cc1ccc2c(c1)N(Cc1ccc(F)cc1)N=C(C(=O)N1CCC(C)CC1)S2(=O)=O`, the RP-LC retention time worked out at 1060 s.

As for `COc1ccc(CNC(=O)C2CN(S(=O)(=O)C3CC3)CC23CCCCC3)c(OC)c1` (stereo not drawn), the RP-LC retention time stood at 815 s.

Compound `O=C(Nc1nc(-c2ccc3c(c2)OCCO3)cs1)c1cc(Cl)sc1Cl` yielded an RP-LC retention time of 1120 s.

With `COC(=O)c1cc(C)nc2c1c(=O)n(Cc1ccc(C)cc1)c(=O)n2Cc1ccco1`, the RP-LC retention time stood at 1160 s.

The compound `CCc1sc(NC(=O)CS(=O)(=O)c2ccc(C)cc2)nc1-c1ccccc1` came in with an RP-LC retention time of 1040 s.

Compound `Cc1ccccc1NC(=O)CN(C)S(=O)(=O)c1cc(C(=O)N2CCC(C)CC2)n(C)c1` came in with an RP-LC retention time of 954 s.

Compound `O=C(NCC1OCCc2ccccc21)C(=O)Nc1ccccc1` (stereo not drawn) showed an RP-LC retention time of 956 s.

With `CCCNC(=O)NC1CCN(C2=NS(=O)(=O)C(c3ccc(CC)cc3)=C2C)CC1`, the RP-LC retention time came out at 787 s.

With `Cc1nc2cc(-c3noc(Cc4cccc(C(F)(F)F)c4)n3)ccc2o1`, the RP-LC retention time was 1080 s.

Take `COc1ccc(OC)c(CCN2CC(=O)N(c3cccc(C)c3)[C@@H]3CS(=O)(=O)C[C@@H]32)c1`: the RP-LC retention time was 848 s.

`CCN(C(=O)CN1C(=O)NC(c2ccc(Cl)cc2)C2=C1COC2=O)c1ccccc1` (stereo not drawn) displayed an RP-LC retention time of 834 s.

In the case of `Cc1ccc(NS(=O)(=O)c2ccc3c(c2)CCCC(=O)N3)cc1C`, the RP-LC retention time turned out to be 756 s.

Compound `Cc1cc(C)cc(OCCNS(=O)(=O)c2cccs2)c1` returned an RP-LC retention time of 935 s.

The compound `Cc1ccsc1C(=O)Nc1ccc(N2CCN(c3ccccc3)C2=O)nc1` displayed an RP-LC retention time of 893 s.

`COc1ncc(C(=O)Nc2cc(C)cc(C)c2)c(C)n1` gave an RP-LC retention time of 817 s.

For the compound `CCC(=O)NCc1nc2c(n1C)CN(S(=O)(=O)c1cccc(C(F)(F)F)c1)CC2`, the RP-LC retention time was 591 s.

With `CC(=O)c1cccc(NC(=O)c2noc3c2CCCCC3)c1`, the RP-LC retention time came out at 977 s.

Compound `Cc1ccc(S(=O)(=O)N2CCC3(CC2)CC(C)(O)CCO3)cc1Cl` (stereo not drawn) showed an RP-LC retention time of 888 s.

In turn, `O=C(Nc1ccc2c(c1)OCCO2)N1CCC(Cc2noc(C3CCOCC3)n2)C1` (stereo not drawn) gave an RP-LC retention time of 698 s.

The compound `CC(C)c1ccc(OCC(=O)N(Cc2ccc(Br)o2)C2CCS(=O)(=O)C2)cc1` (stereo not drawn) displayed an RP-LC retention time of 1050 s.

In turn, `C[C@]12C=CC(=O)C=C1[C@@H](F)C[C@H]1[C@@H]3CC[C@](O)(C(=O)CO)[C@@]3(C)C[C@H](O)[C@@]12F` gave an RP-LC retention time of 660 s.

Take `O=C(CCc1ccccc1)Nc1c(-c2ccc(F)cc2)nc2ccccn12`: the RP-LC retention time came out at 687 s.

`CN(CCc1noc(COc2ccccc2)n1)C(=O)Cc1ccccc1` displayed an RP-LC retention time of 863 s.

`COc1cccc(CC(=O)NCC(=O)Nc2nc3ccccc3[nH]2)c1` had an RP-LC retention time of 618 s.

For `Cc1nc2c(sc3nc(-c4ccccc4)ccc32)c(=O)n1CC(=O)Nc1ccccc1F`, the RP-LC retention time was found to be 982 s.

On to `Cc1cccc2nnc(N3CCCC(C(=O)Nc4ccc5c(c4)OCO5)C3)n12` (stereo not drawn), for which the RP-LC retention time was 664 s.

In the case of `Cc1nc(-c2ccc(S(=O)(=O)N3CCN(c4ccccn4)CC3)cc2)co1`, the RP-LC retention time is 640 s.

`O=C(Nc1cc(F)ccc1Cl)c1cnc(-c2ccc(F)cc2)nc1-c1ccncc1`: the RP-LC retention time turned out to be 1010 s.

The compound `CCN1C(=O)c2cc(S(=O)(=O)NCc3ccccc3F)ccc2Oc2cccnc21` gave an RP-LC retention time of 1010 s.

Consider `COc1ccccc1C(=O)N1CCCC(COc2ccc(C(=O)NC3CC3)cc2)C1` (stereo not drawn), for which the RP-LC retention time was found to be 785 s.

With `CNC(=O)Oc1ccc2c(c1)[C@]1(C)CCN(C)C1N2C` (stereo partly drawn), the RP-LC retention time worked out at 594 s.

As to `CN1CCN(CCCNC(=O)CCC(=O)N2CCCn3nc(-c4cn(C)c5ccccc45)cc32)CC1`, the RP-LC retention time worked out at 583 s.

Compound `CCOC(=O)c1ccccc1NC(=O)c1c2c(cn(-c3ccccc3)c1=O)C(=O)CC(C)(C)C2` had an RP-LC retention time of 1120 s.

Compound `O=C(CN1CCCCC1c1nc(C2CC2)no1)Nc1cccnc1` (stereo not drawn) gave an RP-LC retention time of 592 s.

In the case of `Cc1ccc(C)c(S(=O)(=O)Nc2ccc3nc(N4CCN(CCC#N)CC4)cc(C(=O)O)c3c2)c1`, the RP-LC retention time is 631 s.

Turning to `CCOC(=O)c1cnc(N2CCN(Cc3ccc4c(c3)OCO4)CC2)[nH]c1=O`, the RP-LC retention time turned out to be 605 s.

Compound `CCOC(=O)c1c(S(=O)(=O)N2CCC(C(=O)NCCc3ccccc3)CC2)c(C)n(C)c1C` yielded an RP-LC retention time of 826 s.

`Cc1cccc(N2CCN(c3ccc(SCC(=O)Nc4cccc(F)c4)nn3)CC2)c1`: the RP-LC retention time worked out at 896 s.

`CCN1CCN(c2ncc3c(n2)CCN(Cc2ccc(OC)c(OC)c2OC)C3)CC1` had an RP-LC retention time of 547 s.

The compound `CCN1CCN(c2cc(C)c3cc(NC(=O)C(c4ccccc4)C4CCCC4)ccc3n2)CC1` (stereo not drawn) yielded an RP-LC retention time of 646 s.

For the compound `CC1(C)CCC[C@@](C)([C@H]2CC[C@]3(C)[C@@H]2[C@H](O)C[C@@H]2[C@@]4(C)CC[C@H](O)C(C)(C)[C@@H]4[C@@H](O)C[C@]23C)O1`, the RP-LC retention time came out at 1150 s.

As to `Cc1cc(-c2csc(S(=O)(=O)NCCCN3CCN(Cc4ccccc4)CC3)c2)on1`, the RP-LC retention time stood at 650 s.

In the case of `COc1ccc(C2CCCN2C(=O)c2cc(-c3ccco3)on2)cc1` (stereo not drawn), the RP-LC retention time was found to be 961 s.

As for `O=C(CC1CCN(C(=O)NCCc2ccccc2)CC1)N1CCCCC1`, the RP-LC retention time came to 759 s.

As for `CSc1cccc(NC(=O)N2CCCC(C)(C(=O)NCc3ccc(C)cc3)C2)c1` (stereo not drawn), the RP-LC retention time worked out at 989 s.

As for `COCCCn1c(=O)c2ccccc2n(Cc2nc(-c3ccc(OC)cc3)no2)c1=O`, the RP-LC retention time is 968 s.

Compound `CC(NC(=O)CCCn1c2ccccc2c2cnn(C)c(=O)c21)c1ccccc1` (stereo not drawn) yielded an RP-LC retention time of 873 s.

Regarding `O=C(c1ccco1)N1CCC(Cc2nnc(-c3ccccc3)o2)CC1`, the RP-LC retention time was 749 s.

As for `CCn1c(N2CCCC(C(=O)NCc3ccc(OC)cc3OC)C2)cc(=O)n(C)c1=O` (stereo not drawn), the RP-LC retention time stood at 752 s.

For `CCN1CCCn2cc(S(=O)(=O)NC3CCN(Cc4ccccc4)CC3)cc2C1=O`, the RP-LC retention time was 597 s.

Turning to `COc1ccc(OC)c(-c2cn3ccn(-c4ccc(Cl)cc4)c(=O)c3n2)c1`, the RP-LC retention time amounted to 887 s.

`CCC(=O)N1CCCN(C2=NS(=O)(=O)C(c3ccccc3)=C2C)CC1` had an RP-LC retention time of 694 s.

Take `C=CCN1C(=O)C(C(=O)N2CCOCC2)C2CC1(C)Oc1ccccc12` (stereo not drawn): the RP-LC retention time came out at 718 s.

For the compound `C=CCn1c(SCC#CCO)nc2ccccc2c1=O`, the RP-LC retention time amounted to 744 s.

Consider `O=S(=O)(CCCOc1ccc(F)cc1)NCc1ccccn1`, for which the RP-LC retention time is 645 s.

On to `COc1ccc2[nH]c(=O)c(CCC(=O)NCCOc3ccccc3OC)cc2c1`, for which the RP-LC retention time came out at 681 s.

Consider `Cc1ccc(-c2ccnc(SCC(=O)Nc3ccccc3C(F)(F)F)n2)cc1C`, for which the RP-LC retention time is 1120 s.

As for `O=C(Cn1ccc2ccccc21)Nc1ccc2cn[nH]c2c1`, the RP-LC retention time stood at 726 s.

In turn, `Cc1ccc(F)c(NS(=O)(=O)c2cc(-c3[nH]ncc3C(=O)N(C)C)oc2C)c1` showed an RP-LC retention time of 676 s.

Compound `O=C(COc1ccc(Cl)cc1)Nc1nc(-c2cccc3ccccc23)cs1` registered an RP-LC retention time of 1220 s.

`CCOc1cccc(-c2noc(Cn3nc(-c4ccc5c(c4)OCO5)ccc3=O)n2)c1` came in with an RP-LC retention time of 1130 s.

On to `CCN(CC)S(=O)(=O)c1ccc2c(c1)cc(C(=O)N1CCN(c3ncccn3)CC1)n2C`, for which the RP-LC retention time is 880 s.

`CCCC(=O)Nc1ccc(-n2cnc(C(=O)NC3CCCC3)c2)nc1` had an RP-LC retention time of 726 s.

For `c1csc(-c2csc(CN3CCNCC3)n2)c1`, the RP-LC retention time came to 548 s.

As for `Cc1cccc(NC(=O)C2CCN(S(=O)(=O)c3cc(C(=O)N4CCOCC4)cs3)CC2)c1C`, the RP-LC retention time came to 760 s.

Consider `O=C(c1ccncn1)N1CC(F)(F)C[C@H]1COc1ccc2c(c1)CCC2`, for which the RP-LC retention time is 1020 s.
